Results: patent publication US20030147950A1, “Modified release tamsulosin tablets” (priority 2001, published 2003)

Assay: Solubility of tamsulosin HCl in aqueous media
Assay type: physicochemical
Settings: up to 10 mg
Source text: SGF represents a standard stomach condition. SIF represents a standard intestinal condition. FeSSIF is tailored to better represent the fed state while FaSSIF is tailored to better represent the fasting state. Note that not only are the pH different, but equally important, the osmolarity are also different.

volume of any aqueous media needed to dissolve until 10 mg: not more than 500 ml
SMILES: CCOc1ccccc1OCCNC(C)Cc1ccc(OC)c(S(N)(=O)=O)c1 (stereo not shown) [tamsulosin HCI, 5-[2-[[2-(2-ethoxyphenoxy)ethyl]amino]propyl]-2-methoxy-benzenesulfonamide]
